Data from US20220047719A1, “ENHANCING SUBCUTANEOUS INJECTION AND TARGET TISSUE ACCUMULATION OF NANOPARTICLES VIA CO-ADMINISTRATION WITH MACROPINOCYTOSIS INHIBITORY NANOPARTICLES (MINP)” (Northwestern University, priority 2020, published 2022).

What was measured:
RAW264.7 macrophages [1] = assay: In vitro macrophage cytotoxicity, Zombie Aqua live/dead assay; assay type: cell-based; conditions: free drug
Method: (§1) FIG. 2. […] (a) Cryogenic transmission electron microscopy (CryoTEM) of MiNP visually confirms retention of micellar structures. (b) MiNP with ((+) MiNP) and without ((−) MiNP) loaded LatA were characterized via small angle X-ray scattering (SAXS) and fitted with a micelle model fit using SASView. […] Cells were treated with each inhibitor for 2 h followed by 30 min of incubation with pHrodo dextran prior to analysis by flow cytometry. Data are shown as a percentile scale of endocytosis inhibition. On this scale, 0% represents standard cell uptake with no inhibitor, while 100% represents complete inhibition with no uptake of dye. N=3, p<0.001. […] N=3, p<0.001. […] Macrophages were incubated with various doses of free LatA or (+) MiNP for 4 h and assessed by flow cytometry for viability via the Zombie Aqua live/dead assay. N=3, p<0.05.
(§2) To investigate macropinocytosis inhibition by MiNP and determine whether this inhibition still permits uptake via receptor-mediated endocytosis, (+) MiNP were compared to chlorpromazine, an inhibitor of receptor-mediated endocytosis. These distinct mechanisms of endocytosis were evaluated using dextran conjugated pHrodo dye and transferrin conjugated pHrodo dye to respectively quantify effects of (+) MiNP and chlorpromazine on macropinocytosis (dextran) and receptor-mediated endocytosis (transferrin). […]

B16F10 melanoma cells = assay: LatA inhibition of E-MC and E-MC(FA) uptake; assay type: cell-based, mouse; conditions: 0.5 μM LatA 2 h, then 30 min micelles
Method: FIG. 10. […] B16F10 melanoma cells were treated with 0.5 μM LatA for 2 h followed by 30 min of incubation with either non-targeted E-MC or folate receptor targeted E-MC(FA) prior to analysis by flow cytometry. Data are shown as percentage inhibition of endocytosis normalized to untreated […]. N=3, p<0.001.

RAW264.7 macrophages [2] = assay: Macropinocytosis inhibition, dextran-pHrodo uptake by flow cytometry; assay type: cell-based; conditions: 2 h inhibitor, then 30 min dye
Method: as §1, §2

RAW264.7 macrophages [3] = assay: Receptor-mediated endocytosis, transferrin-pHrodo uptake by flow cytometry; assay type: cell-based; conditions: 2 h inhibitor, then 30 min dye
Method: as §1, §2

inhibition of transferrin-pHrodo uptake (receptor-mediated endocytosis) (RAW264.7 macrophages [3])	inhibition of transferrin-pHrodo uptake (receptor-mediated endocytosis) (RAW264.7 macrophages [3]; listed as chlorpromazine)	SMILES	doses with significant toxicity to macrophages (RAW264.7 macrophages [1])	inhibition of endocytosis of E-MC vs E-MC(FA) (B16F10 melanoma cells)	inhibition of dextran-pHrodo uptake (macropinocytosis) (RAW264.7 macrophages [2])	inhibition of dextran-pHrodo uptake (macropinocytosis) (RAW264.7 macrophages [2]; listed as Free LatA)
		C/C1=C/C(=O)O[C@@H]2C[C@@H](CC[C@H](C)/C=C\C=C\CC1)O[C@@](O)([C@@H]1CSC(=O)N1)C2 [free LatA, latrunculin A]	≥ 0.5 µM	inhibits uptake of non-targeted E-MC more than targeted E-MC(FA)	much stronger inhibition of uptake than free chlorpromazine	significantly inhibited macropinocytosis
significantly inhibited endocytosis	significantly inhibited	CN(C)CCCN1c2ccccc2Sc2ccc(Cl)cc21 [free chlorpromazine, chlorpromazine]				
